One substance from PMC12117998, “First Steps toward the Design of Peptides that Influence the Intracellular Palmitoylation Machinery” (Chembiochem, 2025) can be followed below.

The test system of one series is mEGFP‐HRas. Put plainly: Fluorescence microscopy of mEGFP‐HRas localization. In kind it is cell-based. As to conditions: HeLa mEGFP‐HRas cells, doxycycline-induced, 100 μM peptide, 6 h, n = 3 (Figure 8A). The text has this:
mEGFP‐HRas was amplified from a plasmid gifted from Karel Svoboda^[ [69] ^] (Addgene plasmid # 18662) using the primers 5′‐gcgGGTACCgccaccatggtgagcaagg‐3′ and 5′‐gcgGCGGCCGCtcaggagagcacacactt‐3′. KpnI and NotI restriction sites (capital letter) were used and the construct was cloned into the pcDNA5 FRT‐TO vector to generate an inducible T‐REx‐HeLa cell line using the Flp‐In T‐REx System (Invitrogen). The plasmid was verified by sequencing. The construct was co‐transfected together with the pOG44 vector using the FuGENE HD transfection reagent (Promega). Positive clones were selected with DMEM medium supplemented with 10% FCS, 500 μg ml^−1 penicillin/streptomycin 100 μg ml^−1 hygromycin and 10 μg ml^−1 blasticidin and verified by fluorescence microscopy and immunoblot.
A total of 35,000 HeLa mEGFP‐HRas cells were seeded into an 8‐well plate. Cells were induced with […] ml^−1 doxycycline and incubated for around 15 h under standard growth conditions. Afterward, cells were treated for 6 h with 100 μM peptide diluted in serum‐free medium. And, 10 min prior to the end of the incubation time, the Hoechst 33342 nuclear dye was added. Cells were washed with serum‐free media. Finally, complete medium was added and cells were imaged on the UltraView VoX Spinning Disk Confocal Microscope (Perkin Elmer) on a 60X oil objective at 37 °C and 5% CO2. Images were cropped and processed using Fiji.

Series [1] concerns HeLa cells. Put plainly: Cellular uptake by flow cytometry. In kind it is cell-based. On the procedure:
(§1) HeLa (90,000), MDA‐MB‐231 (120,000), and HFF‐1 (125,000) cells were seeded into a 24‐well plate. Cells were treated with the desired concentration of CF‐labeled peptide diluted in the appropriate serum‐free medium for 30 min at 37 °C and 5% CO2. Afterward, cells were washed once with PBS, detached from the plate using indicator‐free trypsin/EDTA and resuspended in indicator‐free culture medium. The cell mixture was measured on the Guava easyCyte flow cytometer (Merck) using the GRN‐B (520/30) detector.
CMA was synthesized and kindly provided by Azizi et al.^[ [33] ^] Cells were either treated with 20 μM CMA diluted in serum‐free media or 0.1% DMSO diluted in serum‐free media for 6 h at 37 °C with 5% CO2. Next, cells were washed once with serum‐free medium and 5 μM CF‐labeled peptides diluted in serum‐free medium were incubated for 30 min. Control cells were only treated with dimethylsulfoxide (DMSO) or 20 μM CMA.
For the preincubation assay, cells were either treated with 5 μM DC‐2 diluted in serum‐free medium or only serum‐free medium for 30 min at 37 °C and 5% CO2. Afterward, cells were washed once with serum‐free medium and treated with 5 μM CF‐labeled DC‐2 for 30 min at 37 °C and 5% CO2.
To block cell surface thiols, cells were incubated with either serum‐free medium or 1.2 mM 5,5′‐dithiobis‐(2‐nitrobenzoic acid) (Ellman's reagent, DTNB) diluted in serum‐free medium for 5 min. Next, untreated cells were treated with 1 μM of CF‐labeled DC‐2 or DC‐2dis diluted in serum‐free medium and DTNB‐pretreated cells with 1 μM of CF‐labeled DC‐2 or DC‐2dis and 1.2 mM DTNB in serum‐free medium for 30 min at 37 °C and 5% CO2 as described by Aubry et al.^[ [47] ^]
(In general: Flow cytometry measures light scatter and fluorescence of single cells or particles in a stream.)

The next series deals with HFF‐1 cells. Put plainly: Cellular uptake by flow cytometry. Type of series: cell-based, human. Conditions: HFF‐1, 30 min, 5 μM CF‐labeled peptides, serum-free medium, 37 °C, n ≥ 3 (Figure 3F). On the procedure: as §1
Series [2] relates to HeLa cells. Description: Co‐localization studies (confocal microscopy, PCC and MOC). Type of series: cell-based. Conditions: 2 h, 5 μM CF‐DC‐2, CellLight ER‐RFP, mean ± SD of ≥37 cells, n = 2. On the procedure: HeLa cells (30,000–40,000) were seeded into an 8‐well ibidi. For lysosomal and lipid droplet analysis, cells were treated for 30 min with 5 μM of CF‐labeled peptide combined with either 100 nM LysoTracker Red DND‐99 (Invitrogen) or a 1:1000 solution of distyryl Bodipy lipid droplet stain synthesized and kindly provided by Engelhardt et al.^[ [67] ^] diluted in serum‐free media under standard growth conditions. For Golgi analysis, cells were treated for 2 h with 5 μM CF‐labeled peptide under standard growth conditions. For the last 30 min of the incubation period, 1:100 BODIPY TR ceramide complexed to bovine serum albumine (BSA) (Invitrogen) was directly diluted into the well and incubated for the last 30 min together with the peptide. For ER staining, CellLight ER‐RFP, BacMam 2.0 (Invitrogen), was added to the cells and incubated overnight under standard growth conditions. The next day, the cells were treated for 2 h with 5 μM CF‐labeled peptides as described earlier. After the peptide and stain incubation, cells were washed three to four times with serum‐free medium. […] Pearson and Manders’ Coefficients were calculated using the JaCoP analysis tool.^[ [68] ^] For Golgi analysis, no PCC or MOC was determined as the unedited images contained a strong background signal.

No end group written: not given here.

Consider “GLRKRLRKFRNKKMDHHCPW-NH2 [DC‐2, CPP sC18* fused to the DHHC motif derived from ZDHHC2/3/6/7/15/16/20]”, for which, in the series on mEGFP‐HRas, the HRas localization result is on record as “altered HRas pattern”. Moreover, the “effect of blocking cell surface thiols (DTNB) on cellular uptake” value with HeLa cells [1] (5 min 1.2 mM DTNB, then 1 μM CF‐labeled peptide with DTNB 30 min, flow cytometry, n = 3 (Figure S8C)) was “no significant difference”. Moreover, in the series with HeLa cells [1] (30 min 5 μM unlabeled DC‐2, then 30 min 5 μM CF‐DC‐2, flow cytometry, n = 3 (Figure S5E)), the “effect of pretreatment with unlabeled DC‐2 on peptide uptake” value is reported as “no significant difference in the quantity of peptide uptake”. For the same substance, the “cellular uptake in medium lacking L‐cystine” value in the series on HeLa cells [1] (30 min, 5 µM CF-DC-2, flow cytometry, n = 3 (Figure S8B)) was “slightly increased”. For the same substance, in the series with HeLa cells [1] (30 min, 5 μM CF‐labeled peptides, serum-free medium, 37 °C, flow cytometry, n ≥ 3 (Figure 3D, 5C)), the “cellular uptake (in words)” value is recorded as “internalized to a higher extent compared to DC‐4”. The “cellular uptake (in words)” value in the series on HFF‐1 cells is “internalized to a higher extent compared to DC‐4”. In the series with HeLa cells [2], the “Mander's overlap coefficient (MOC), ER” value is 0.60 ± 0.20 and the “Pearson correlation coefficient (PCC), ER” value is recorded as 0.37 ± 0.10.
